Results published in patent US12552826B2, “PRMT5 inhibitors” (Merck Sharp & Dohme LLC, priority 2018, dated 2026).

Each compound was assayed against T1, PRMT5 (Homo sapiens, UniProt O14744) (assay: PRMT5 Cell Target Engagement (TE) Assay). Conditions: MCF-7 cells, 3 days treatment, nuclear SDMA by high content imaging.
T1 construct: endogenous in cells; host or cells: MCF-7
Assay type: cell-based
Source text: The PRMT5 TE assay is a biomarker assay for identifying compounds that inhibit symmetric dimethylation of arginine (SDMA) of PRMT5 substrates. The following substrates have been reported for PRMT5: Histone H2A and H4 R3, Histone H3 R2, Histone H3 R8, spliceosome Sm proteins, ribosomal protein RPS10, p53, FEN1, nucleoplasmin, nucleolin, EGFR and EBNA. The assay will focus on detecting symmetrically dimethylated nuclear proteins using high content imaging technology. Detection of the expression of symmetrically dimethylated nuclear proteins is through a mixture of primary rabbit monoclonal antibodies to SDMA (CST 13222), which in turn recognized by an Alexafluor 488 dye-conjugated anti-rabbit IgG secondary antibody. The IN Cell Analyzer 2200 or Opera-Phenix measures nuclear Alexafluor 488 fluorescent dye intensity that is directly related to the level of expression of symmetrically dimethylated nuclear proteins at the single cell level. Nuclear AF488 dye intensities are compared to the mean value for DMSO treated cells (MIN) to report percent of inhibition for each compound-treated well.
In this assay, the cell potency (EC50) of each compound was determined from a ten point (1:3 serial dilution; top compound concentration of 10000 nM) titration curve using the following outlined procedure. Each well of a BD falcon collagen coated black/clear bottom 384-well plate was seeded with 4000 MCF-7 cells in 30 μl media and allowed to attach for 5 hours. Media is ATCC-formulated Eagle's Minimum Essential Medium, Catalog No. 30-2003. The following components were added to the base medium: 0.01 mg/mL human recombinant insulin; fetal bovine serum to a final concentration of 10%. Additional 30 μl of media containing 2× compounds were added to each well. Cells were treated for 3 days in 37° C. CO2 incubator. On day 3, cells were fixed with Cytofix, permeabilized with 0.4% Triton-X-100/Cytofix, and washed with D-PBS without Ca/Mg. Cells were blocked with Licor Odessey blocking reagent for 1 hour at room temperature, followed by incubation with anti-SDMA (1:1000) antibody at 4° C. overnight. 1° antibody was removed, followed by three washings with DPBS without Ca/Mg and 0.05% Tween20. Hoechst (5 μg/mL), Cell Mask deep stain (1:2000) and Alexa488-conjugated goat anti-rabbit IgG (2 μg/mL) was added for 1 hour at room temperature. A final washing step (three washes) was performed before sealing plate for imaging on In Cell Analyzer 2200 or Opera-Phenix. Images from analyzer were uploaded to Columbus for image analysis. IC50 values were determined by 4 parameters robust fit of percent fluorescence units vs. (Log10) compound concentrations.

T1 sequence (O14744 whole entry): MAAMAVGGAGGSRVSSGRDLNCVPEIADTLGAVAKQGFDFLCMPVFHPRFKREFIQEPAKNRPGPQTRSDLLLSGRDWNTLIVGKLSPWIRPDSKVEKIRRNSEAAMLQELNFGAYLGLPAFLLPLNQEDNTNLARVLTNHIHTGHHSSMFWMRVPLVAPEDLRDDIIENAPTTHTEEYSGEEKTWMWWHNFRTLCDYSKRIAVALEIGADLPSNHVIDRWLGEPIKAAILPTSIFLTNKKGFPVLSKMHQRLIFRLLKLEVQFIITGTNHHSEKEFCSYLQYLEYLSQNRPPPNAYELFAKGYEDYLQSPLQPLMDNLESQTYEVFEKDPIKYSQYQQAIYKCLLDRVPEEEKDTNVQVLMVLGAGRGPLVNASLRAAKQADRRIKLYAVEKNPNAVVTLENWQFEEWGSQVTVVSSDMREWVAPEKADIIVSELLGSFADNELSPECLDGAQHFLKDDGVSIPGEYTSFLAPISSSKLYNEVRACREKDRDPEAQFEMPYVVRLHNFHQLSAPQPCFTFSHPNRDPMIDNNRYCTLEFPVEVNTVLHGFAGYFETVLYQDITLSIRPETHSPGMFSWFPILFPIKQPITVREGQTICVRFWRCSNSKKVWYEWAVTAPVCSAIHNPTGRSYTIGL
T1 sequence (Q9BQA1 whole entry partner): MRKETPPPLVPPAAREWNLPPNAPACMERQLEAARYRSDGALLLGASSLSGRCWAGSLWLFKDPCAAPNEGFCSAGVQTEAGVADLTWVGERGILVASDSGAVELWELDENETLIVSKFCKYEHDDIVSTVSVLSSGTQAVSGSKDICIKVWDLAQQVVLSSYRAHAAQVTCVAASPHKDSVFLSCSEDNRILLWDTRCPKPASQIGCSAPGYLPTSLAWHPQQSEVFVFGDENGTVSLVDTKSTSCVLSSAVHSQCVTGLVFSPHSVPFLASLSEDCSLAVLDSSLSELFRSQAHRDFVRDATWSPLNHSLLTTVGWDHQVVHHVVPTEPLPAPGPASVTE

SMILES	EC50
C[C@@]1(O)[C@@H]([C@@H](O)c2ccnc(C(F)F)c2)O[C@@H](n2ccc3c(N)ncnc32)[C@@H]1O [Example 79, 7-{(5S)-5-C-[2-(difluoromethyl)pyridin-4-yl]-3-C-methyl-beta-D-ribofuranosyl}-7H-pyrrolo[2,3-d]pyrimidin-4-amine]	> 10 µM
C[C@@]1(O)[C@@H]([C@@H](O)c2ccc(F)c(F)c2F)O[C@@H](n2ccc3c(N)ncnc32)[C@@H]1O [Example 51, 7-[(5S)-3-C-methyl-5-C-(2,3,4-trifluorophenyl)-beta-D-ribofuranosyl]-7H-pyrrolo[2,3-d]pyrimidin-4-amine]	> 10 µM
Cc1ncnc2c1ccn2[C@@H]1O[C@H]([C@@H](O)c2cc(C(F)F)c(F)c3c2CNCC3)[C@@](C)(O)[C@H]1O (single isomer, unassigned) [Example 90]	0.0074 µM
C[C@@]1(O)[C@@H]([C@H](O)c2ccc(F)c(F)c2)O[C@@H](n2ccc3c(N)ncnc32)[C@@H]1O [Example 1, (2R,3S,4R,5R)-5-(4-amino-7H-pyrrolo[2,3-d]pyrimidin-7-yl)-2-((R)-(3,4-difluorophenyl)(hydroxy)methyl)-3-methyltetrahydrofuran-3,4-diol]	0.187 µM
C[C@@]1(O)[C@@H]([C@H](O)c2ccc(Cl)cc2F)O[C@@H](n2ccc3c(N)ncnc32)[C@@H]1O [Example 42, 7-[(5R)-5-C-(4-chloro-2-fluorophenyl)-3-C-methyl-beta-D-ribofuranosyl]-7H-pyrrolo[2,3-d]pyrimidin-4-amine]	1.82 µM
C[C@@]1(O)[C@@H]([C@@H](O)c2cc(C(F)F)ccn2)O[C@@H](n2ccc3c(N)ncnc32)[C@@H]1O [Example 73, 7-{(5S)-5-C-[4-(difluoromethyl)pyridin-2-yl]-3-C-methyl-beta-D-ribofuranosyl}-7H-pyrrolo[2,3-d]pyrimidin-4-amine]	> 10 µM
C[C@@]1(O)[C@@H]([C@H](O)c2cc(C(F)F)ccn2)O[C@@H](n2ccc3c(N)ncnc32)[C@@H]1O [Example 72, 7-{(5R)-5-C-[4-(difluoromethyl)pyridin-2-yl]-3-C-methyl-beta-D-ribofuranosyl}-7H-pyrrolo[2,3-d]pyrimidin-4-amine]	2.06 µM
C[C@@]1(O)[C@@H]([C@H](O)c2cc(F)c(F)c(F)c2)O[C@@H](n2ccc3c(N)ncnc32)[C@@H]1O [Example 34, 7-[(5R)-3-C-methyl-5-C-(3,4,5-trifluorophenyl)-beta-D-ribofuranosyl]-7H-pyrrolo[2,3-d]pyrimidin-4-amine]	0.227 µM
C[C@@]1(O)[C@@H]([C@@H](O)c2ccc(Cl)cc2F)O[C@@H](n2ccc3c(N)ncnc32)[C@@H]1O [Example 43, 7-[(5S)-5-C-(4-chloro-2-fluorophenyl)-3-C-methyl-beta-D-ribofuranosyl]-7H-pyrrolo[2,3-d]pyrimidin-4-amine]	> 10 µM
Cc1ccc([C@H](O)[C@H]2O[C@@H](n3ccc4c(N)ncnc43)[C@H](O)[C@]2(C)O)cc1 [Example 31, 7-[(5S)-3-C-methyl-5-C-(4-methylphenyl)-beta-D-ribofuranosyl]-7H-pyrrolo[2,3-d]pyrimidin-4-amine]	> 10 µM
C[C@@]1(O)[C@@H]([C@H](O)c2cccc(Cl)c2)O[C@@H](n2ccc3c(N)ncnc32)[C@@H]1O [Example 16, 7-[(5R)-5-C-(3-chlorophenyl)-3-C-methyl-beta-D-ribofuranosyl]-7H-pyrrolo[2,3-d]pyrimidin-4-amine]	0.08 µM
COc1ccc([C@H](O)[C@H]2O[C@@H](n3ccc4c(N)ncnc43)[C@H](O)[C@]2(C)O)cc1 [Example 33, 7-[(5S)-5-C-(4-methoxyphenyl)-3-C-methyl-beta-D-ribofuranosyl]-7H-pyrrolo[2,3-d]pyrimidin-4-amine]	> 10 µM
C[C@@]1(O)[C@@H]([C@H](O)c2cccc(F)c2)O[C@@H](n2ccc3c(N)ncnc32)[C@@H]1O [Example 20, 7-[(5R)-5-C-(3-fluorophenyl)-3-C-methyl-beta-D-ribofuranosyl]-7H-pyrrolo[2,3-d]pyrimidin-4-amine]	0.141 µM
